Source: PubChem BioAssay (NCI)
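Five concentrations, 48 hours, 96-well plates. Here, GI50 denotes the concentration required for 50% inhibition of growth. TGI is the concentration that stops growth completely.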

What was measured:
Assay in all cases: DTP human tumour cell line panel, 48 h
786-0 renal = tested on: 786-0 renal
A498 renal = tested on: A498 renal
A549 NSCLC = tested on: A549 NSCLC
ACHN renal = tested on: ACHN renal
BT-549 breast = tested on: BT-549 breast
CAKI-1 renal = tested on: CAKI-1 renal
CCRF-CEM leukemia = tested on: CCRF-CEM leukemia
COLO 205 colon = tested on: COLO 205 colon
DU-145 prostate = tested on: DU-145 prostate
EKVX NSCLC = tested on: EKVX NSCLC
HCC-2998 colon = tested on: HCC-2998 colon
HCT-116 colon = tested on: HCT-116 colon
HCT-15 colon = tested on: HCT-15 colon
HOP-62 NSCLC = tested on: HOP-62 NSCLC
HOP-92 NSCLC = tested on: HOP-92 NSCLC
HS 578T breast = tested on: HS 578T breast
HT29 colon = tested on: HT29 colon
IGROV1 ovarian = tested on: IGROV1 ovarian
K-562 leukemia = tested on: K-562 leukemia
KM12 colon = tested on: KM12 colon
LOX IMVI melanoma = tested on: LOX IMVI melanoma
M14 melanoma = tested on: M14 melanoma
MCF7 breast = tested on: MCF7 breast
MDA-MB-231 breast = tested on: MDA-MB-231 breast
MDA-MB-435 = tested on: MDA-MB-435
MOLT-4 leukemia = tested on: MOLT-4 leukemia
NCI-H226 lung = tested on: NCI-H226 lung
NCI-H23 lung = tested on: NCI-H23 lung
NCI-H522 lung = tested on: NCI-H522 lung
NCI/ADR-RES ovarian = tested on: NCI/ADR-RES ovarian
OVCAR-3 ovarian = tested on: OVCAR-3 ovarian
OVCAR-4 ovarian = tested on: OVCAR-4 ovarian
OVCAR-5 ovarian = tested on: OVCAR-5 ovarian
OVCAR-8 ovarian = tested on: OVCAR-8 ovarian
PC-3 prostate = tested on: PC-3 prostate
RPMI-8226 leukemia = tested on: RPMI-8226 leukemia
RXF 393 renal = tested on: RXF 393 renal
SF-268 CNS = tested on: SF-268 CNS
SF-295 CNS = tested on: SF-295 CNS
SF-539 CNS = tested on: SF-539 CNS
SK-MEL-2 melanoma = tested on: SK-MEL-2 melanoma
SK-MEL-28 melanoma = tested on: SK-MEL-28 melanoma
SK-MEL-5 melanoma = tested on: SK-MEL-5 melanoma
SK-OV-3 ovarian = tested on: SK-OV-3 ovarian
SN12C renal = tested on: SN12C renal
SNB-19 CNS = tested on: SNB-19 CNS
SNB-75 CNS = tested on: SNB-75 CNS
SW-620 colon = tested on: SW-620 colon
T-47D breast = tested on: T-47D breast
TK-10 renal = tested on: TK-10 renal
U251 CNS = tested on: U251 CNS
UACC-257 melanoma = tested on: UACC-257 melanoma
UACC-62 melanoma = tested on: UACC-62 melanoma
UO-31 renal = tested on: UO-31 renal
HL-60(TB) leukemia = tested on: HL-60(TB) leukemia
NCI-H460 lung = tested on: NCI-H460 lung
SR leukemia = tested on: SR leukemia

COC(=O)[C@]1(C)CCCn2c(=O)n(-c3ccccc3)c(=O)n21 gave a TGI (786-0 renal) greater than 100 µM, a TGI (A498 renal) greater than 100 µM and a TGI (A549 NSCLC) greater than 100 µM. The TGI (ACHN renal) was greater than 100 µM, the TGI (BT-549 breast) was greater than 100 µM and the TGI (CAKI-1 renal) was greater than 100 µM. For the same compound, the TGI (CCRF-CEM leukemia) was greater than 100 µM, the TGI (COLO 205 colon) was greater than 100 µM and the TGI (DU-145 prostate) was greater than 100 µM. For the same compound, the TGI (EKVX NSCLC) was greater than 100 µM, the TGI (HCC-2998 colon) was greater than 100 µM and the TGI (HCT-116 colon) was greater than 100 µM. For the same compound, the TGI (HCT-15 colon) was greater than 100 µM, the TGI (HOP-62 NSCLC) was greater than 100 µM and the TGI (HOP-92 NSCLC) was greater than 100 µM. The TGI (HS 578T breast) was greater than 100 µM, the TGI (HT29 colon) was greater than 100 µM and the TGI (IGROV1 ovarian) was greater than 100 µM. It also gave a TGI (K-562 leukemia) greater than 100 µM, a TGI (KM12 colon) greater than 100 µM and a TGI (LOX IMVI melanoma) greater than 100 µM. It also gave a TGI (M14 melanoma) greater than 100 µM, a TGI (MCF7 breast) greater than 100 µM and a TGI (MDA-MB-231 breast) greater than 100 µM. The TGI (MDA-MB-435) was greater than 100 µM, the TGI (MOLT-4 leukemia) was greater than 100 µM and the TGI (NCI-H226 lung) was greater than 100 µM. The TGI (NCI-H23 lung) was greater than 100 µM, the TGI (NCI-H522 lung) was greater than 100 µM and the TGI (NCI/ADR-RES ovarian) was greater than 100 µM. The TGI (OVCAR-3 ovarian) was greater than 100 µM, the TGI (OVCAR-4 ovarian) was greater than 100 µM and the TGI (OVCAR-5 ovarian) was greater than 100 µM. For the same compound, the TGI (OVCAR-8 ovarian) was greater than 100 µM, the TGI (PC-3 prostate) was greater than 100 µM and the TGI (RPMI-8226 leukemia) was greater than 100 µM. For the same compound, the TGI (RXF 393 renal) was greater than 100 µM, the TGI (SF-268 CNS) was greater than 100 µM and the TGI (SF-295 CNS) was greater than 100 µM. The TGI (SF-539 CNS) was greater than 100 µM, the TGI (SK-MEL-2 melanoma) was greater than 100 µM and the TGI (SK-MEL-28 melanoma) was greater than 100 µM. It also gave a TGI (SK-MEL-5 melanoma) greater than 100 µM, a TGI (SK-OV-3 ovarian) greater than 100 µM and a TGI (SN12C renal) greater than 100 µM. For the same compound, the TGI (SNB-19 CNS) was greater than 100 µM, the TGI (SNB-75 CNS) was greater than 100 µM and the TGI (SW-620 colon) was greater than 100 µM. For the same compound, the TGI (T-47D breast) was greater than 100 µM, the TGI (TK-10 renal) was greater than 100 µM and the TGI (U251 CNS) was greater than 100 µM. It also gave a TGI (UACC-257 melanoma) greater than 100 µM, a TGI (UACC-62 melanoma) greater than 100 µM and a TGI (UO-31 renal) greater than 100 µM.

For ClCCN(CCCl)Cc1ccc(Nc2ccnc3cc(Cl)ccc23)cc1, the GI50 (A549 NSCLC) was 1.11 µM, the TGI (A549 NSCLC) was 5.08 µM and the GI50 (ACHN renal) was 0.548 µM. The TGI (ACHN renal) was greater than 100 µM, the GI50 (BT-549 breast) was 2.12 µM and the TGI (BT-549 breast) was 6.04 µM. The GI50 (CCRF-CEM leukemia) was 0.265 µM, the TGI (CCRF-CEM leukemia) was 2.99 µM and the GI50 (HCC-2998 colon) was 1.41 µM. It also gave a TGI (HCC-2998 colon) of 2.76 µM, a GI50 (HCT-116 colon) of 1.56 µM and a TGI (HCT-116 colon) greater than 100 µM. The GI50 (HL-60(TB) leukemia) was 0.403 µM, the TGI (HL-60(TB) leukemia) was 3.07 µM and the GI50 (HOP-62 NSCLC) was 1.34 µM. The TGI (HOP-62 NSCLC) was 5.16 µM, the GI50 (HS 578T breast) was 2.92 µM and the TGI (HS 578T breast) was 8.38 µM. For the same compound, the GI50 (HT29 colon) was 1.28 µM, the TGI (HT29 colon) was 4.73 µM and the GI50 (KM12 colon) was 2.07 µM. It also gave a TGI (KM12 colon) of 5.57 µM, a GI50 (MCF7 breast) of 0.588 µM and a TGI (MCF7 breast) of 9.34 µM. For the same compound, the GI50 (MDA-MB-231 breast) was 1.66 µM, the TGI (MDA-MB-231 breast) was 3.49 µM and the GI50 (MOLT-4 leukemia) was 0.416 µM. The TGI (MOLT-4 leukemia) was 2.78 µM, the GI50 (NCI-H226 lung) was 1.41 µM and the TGI (NCI-H226 lung) was 3.78 µM. The GI50 (NCI-H23 lung) was 1.33 µM, the TGI (NCI-H23 lung) was 4.52 µM and the GI50 (NCI-H460 lung) was 0.402 µM. It also gave a TGI (NCI-H460 lung) of 10.7 µM, a GI50 (NCI/ADR-RES ovarian) of 2.17 µM and a TGI (NCI/ADR-RES ovarian) of 7.36 µM. For the same compound, the GI50 (OVCAR-5 ovarian) was 2.57 µM, the TGI (OVCAR-5 ovarian) was 6.66 µM and the GI50 (PC-3 prostate) was 1.57 µM. The TGI (PC-3 prostate) was 5.71 µM, the GI50 (RPMI-8226 leukemia) was 1.72 µM and the TGI (RPMI-8226 leukemia) was 5.41 µM. For the same compound, the GI50 (SF-268 CNS) was 1.18 µM, the TGI (SF-268 CNS) was 5.68 µM and the GI50 (SF-295 CNS) was 2.08 µM. For the same compound, the TGI (SF-295 CNS) was 6.98 µM, the GI50 (SK-MEL-28 melanoma) was 2.15 µM and the TGI (SK-MEL-28 melanoma) was 5.31 µM. For the same compound, the GI50 (SK-OV-3 ovarian) was 1.44 µM, the TGI (SK-OV-3 ovarian) was 4.52 µM and the GI50 (SN12C renal) was 0.48 µM. For the same compound, the TGI (SN12C renal) was 4.02 µM, the GI50 (SNB-19 CNS) was 1.89 µM and the TGI (SNB-19 CNS) was 6.73 µM. It also gave a GI50 (SNB-75 CNS) of 1.34 µM, a TGI (SNB-75 CNS) of 3.72 µM and a GI50 (SR leukemia) of 0.269 µM. It also gave a TGI (SR leukemia) of 2.78 µM, a GI50 (SW-620 colon) of 1.35 µM and a TGI (SW-620 colon) of 14.6 µM. For the same compound, the GI50 (T-47D breast) was 1.09 µM, the TGI (T-47D breast) was 3.69 µM and the GI50 (TK-10 renal) was 2.42 µM. For the same compound, the TGI (TK-10 renal) was 6.22 µM, the GI50 (UACC-257 melanoma) was 1.9 µM and the TGI (UACC-257 melanoma) was 5.71 µM.
